In patent US20230293526A1, “METHOD FOR TREATING CANCER WITH A REVERSE TRANSCRIPTASE INHIBITOR” (PrimeFour Therapeutics, Inc., priority 2020, published 2023):

Columns and labels:
cancer cell lines = assay: Cancer cell proliferation activity of representative nucleosides, CellTiterGlo 72 h (Example 7, Tables 8 and 9); type: cell-based; settings: 72 h
Summary of the method: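 Percent viability was set against 0.1% DMSO (100%) and 10 μM staurosporine (0%), with signal from CellTiterGlo luminescence. Dose-response treatment began one day after seeding and lasted 72 h at 37° C under 5% or 10% CO2, with 0.1% final DMSO.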

human LINE-1 = assay: Human LINE-1 (L1) retrotransposition dual-luciferase reporter assay in HeLa cells; type: cell-based; settings: Homo sapiens, HeLa, 72 h, read-out: Human LINE-1 IC50 (Human L1 activity inhibition)
Summary of the method: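 Compound dilution series (final DMSO 0.2%) added right after transfecting HeLa cells with the pYX017 L1 dual-luciferase reporter; 72 h culture at 37 °C, 5% CO2, triplicates. IC50 fitted by non-linear logistic regression to firefly-to-Renilla luminescence ratio (×10,000).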

SMILES: C#C[C@]1(CO)O[C@@H](n2cnc3c(=O)[nH]c(N)nc32)C[C@@H]1O [compound 13]
- IC50 (cancer cell lines; 72 h, 5637, bladder): 2270 nM
- IC50 (cancer cell lines; CLS439, bladder): > 50000 nM
- IC50 (cancer cell lines; HS729, muscle): 1510 nM
- IC50 (cancer cell lines; J82, bladder): 1970 nM
- IC50 (cancer cell lines; JAR, placenta): > 50000 nM
- IC50 (cancer cell lines; MT3, breast): 370 nM
- IC50 (cancer cell lines; PC3, prostate): 1800 nM
- IC50 (cancer cell lines; RD, muscle): > 50000 nM
- IC50 (cancer cell lines; T24, bladder): 4540 nM
- IC50 (cancer cell lines; Homo sapiens, 22Rv1, 72 h, 22RV1, prostate): 2220 nM
- IC50 (cancer cell lines; Homo sapiens, 786-0, 72 h, 786O, kidney): > 50000 nM
- IC50 (cancer cell lines; Homo sapiens, A204, 72 h, A204, muscle): 270 nM
- IC50 (cancer cell lines; Homo sapiens, A549, 72 h, A549, lung): 2060 nM
- IC50 (cancer cell lines; Homo sapiens, A673, 72 h, A673, bone): > 50000 nM
- IC50 (cancer cell lines; Homo sapiens, A2780, 72 h, A2780, ovary): 15600 nM
- IC50 (cancer cell lines; Homo sapiens, A-375, 72 h, A375, skin): 2350 nM
- IC50 (cancer cell lines; Homo sapiens, A-431, 72 h, A431, skin): 3030 nM
- IC50 (cancer cell lines; Homo sapiens, ACHN, kidney): 1440 nM
- IC50 (cancer cell lines; Homo sapiens, ASPC1, 72 h, ASPC1, pancreas): 1330 nM
- IC50 (cancer cell lines; Homo sapiens, BT-20, 72 h, BT20, breast): > 50000 nM
- IC50 (cancer cell lines; Homo sapiens, BXPC-3, 72 h, BXPC3, pancreas): 1430 nM
- IC50 (cancer cell lines; Homo sapiens, C-33-A, C33A, endometrial): 2030 nM
- IC50 (cancer cell lines; Homo sapiens, CAKI-1, 72 h, CAKI1, kidney): 1840 nM
- IC50 (cancer cell lines; Homo sapiens, COLO 205, 72 h, COLO205, colon): 1470 nM
- IC50 (cancer cell lines; Homo sapiens, COLO-678, 72 h, COLO678, colon): 4090 nM
- IC50 (cancer cell lines; Homo sapiens, Ca-Ski, CASKI, endometrial): > 50000 nM
- IC50 (cancer cell lines; Homo sapiens, Caco-2, 72 h, CACO2, colon): > 50000 nM
- IC50 (cancer cell lines; Homo sapiens, Calu-6, 72 h, CALU6, lung): > 50000 nM
- IC50 (cancer cell lines; Homo sapiens, DLD-1, 72 h, DLD1, colon): > 50000 nM
- IC50 (cancer cell lines; Homo sapiens, DU-145, 72 h, DU145, prostate): 4070 nM
- IC50 (cancer cell lines; Homo sapiens, EFO-21, 72 h, EFO21, ovary): 4000 nM
- IC50 (cancer cell lines; Homo sapiens, EJ-28, 72 h, EJ28, bladder): 6820 nM
- IC50 (cancer cell lines; Homo sapiens, Granta-519, 72 h, GRANTA-519, hematological): 2440 nM
- IC50 (cancer cell lines; Homo sapiens, HCT-15, 72 h, HCT15, colon): > 50000 nM
- IC50 (cancer cell lines; Homo sapiens, HCT-116, 72 h, HCT116, colon): 3370 nM
- IC50 (cancer cell lines; Homo sapiens, HEK293, 72 h, HEK293, kidney): 7690 nM
- IC50 (cancer cell lines; Homo sapiens, HL-60, 72 h, HL-60, hematological): 2060 nM
- IC50 (cancer cell lines; Homo sapiens, HT-29, 72 h, HT29, colon): 2280 nM
- IC50 (cancer cell lines; Homo sapiens, HT-1080, 72 h, HT1080, connective tissue): 3880 nM
- IC50 (cancer cell lines; Homo sapiens, HeLa, endometrial): 1200 nM
- IC50 (cancer cell lines; Homo sapiens, HepG2, 72 h, HEPG2, liver): 1240 nM
- IC50 (cancer cell lines; Homo sapiens, Hs-578T, HS578T, breast): > 50000 nM
- IC50 (cancer cell lines; Homo sapiens, IGROV-1, 72 h, IGROV1, ovary): 2760 nM
- IC50 (cancer cell lines; Homo sapiens, IMR-90, 72 h, IMR90, lung): > 50000 nM
- IC50 (cancer cell lines; Homo sapiens, JEG-3, 72 h, JEG3, placenta): > 50000 nM
- IC50 (cancer cell lines; Homo sapiens, JIMT-1, 72 h, JIMT1, breast): 2040 nM
- IC50 (cancer cell lines; Homo sapiens, K562, 72 h, K-562, hematological): > 50000 nM
- IC50 (cancer cell lines; Homo sapiens, Kasumi 1, 72 h, KASUMI-1, hematological): 100 nM
- IC50 (cancer cell lines; Homo sapiens, L-363, 72 h, L-363, hematological): > 50000 nM
- IC50 (cancer cell lines; Homo sapiens, LoVo, colon): 3100 nM
- IC50 (cancer cell lines; Homo sapiens, MCF7, 72 h, MCF7, breast): 5950 nM
- IC50 (cancer cell lines; Homo sapiens, MDA-MB-231, 72 h, MDAMB231, breast): 1320 nM
- IC50 (cancer cell lines; Homo sapiens, MDA-MB-435, 72 h, MDAMB435, skin): > 50000 nM
- IC50 (cancer cell lines; Homo sapiens, MDA-MB-436, 72 h, MDAMB436, breast): 1500 nM
- IC50 (cancer cell lines; Homo sapiens, MDA-MB-468, 72 h, MDAMB468, breast): > 50000 nM
- IC50 (cancer cell lines; Homo sapiens, MG-63, 72 h, MG63, bone): > 50000 nM
- IC50 (cancer cell lines; Homo sapiens, MHH-ES-1, 72 h, MHHES1, bone): > 50000 nM
- IC50 (cancer cell lines; Homo sapiens, MIA PaCa-2, 72 h, MIAPACA2, pancreas): 6240 nM
- IC50 (cancer cell lines; Homo sapiens, MINO, hematological): 460 nM
- IC50 (cancer cell lines; Homo sapiens, MV4-11, 72 h, MV4-11, hematological): 1020 nM
- IC50 (cancer cell lines; Homo sapiens, NCI-H23, 72 h, NCI-H23, lung): 4670 nM
- IC50 (cancer cell lines; Homo sapiens, NCI-H82, 72 h, NCIH82, lung): 15400 nM
- IC50 (cancer cell lines; Homo sapiens, NCI-H292, 72 h, NCIH292, lung): 1070 nM
- IC50 (cancer cell lines; Homo sapiens, NCI-H460, 72 h, NCIH460, ung): 1410 nM
- IC50 (cancer cell lines; Homo sapiens, OVCAR-3, 72 h, OVCAR3, ovary): 760 nM
- IC50 (cancer cell lines; Homo sapiens, OVCAR-4, 72 h, OVCAR4, ovary): > 50000 nM
- IC50 (cancer cell lines; Homo sapiens, PANC-1, 72 h, PANC1, pancreas): > 50000 nM
- IC50 (cancer cell lines; Homo sapiens, PLC-PRF-5, 72 h, PLCPRF5, liver): 2100 nM
- IC50 (cancer cell lines; Homo sapiens, Panc1005, 72 h, PANC1005, pancreas): 3080 nM
- IC50 (cancer cell lines; Homo sapiens, Ramos, hematological): 1170 nM
- IC50 (cancer cell lines; Homo sapiens, SAOS-2, 72 h, SAOS2, bone): 1660 nM
- IC50 (cancer cell lines; Homo sapiens, SF-268, 72 h, SF268, brain): > 50000 nM
- IC50 (cancer cell lines; Homo sapiens, SF-295, 72 h, SF295, brain): 7160 nM
- IC50 (cancer cell lines; Homo sapiens, SK-BR-3, 72 h, SKBR3, breast): 4610 nM
- IC50 (cancer cell lines; Homo sapiens, SK-HEP1, 72 h, SKHEP1, liver): 2290 nM
- IC50 (cancer cell lines; Homo sapiens, SK-LMS-1, 72 h, SKLMS1, uterus): 2380 nM
- IC50 (cancer cell lines; Homo sapiens, SK-MEL-5, 72 h, SKMEL5, skin): > 50000 nM
- IC50 (cancer cell lines; Homo sapiens, SK-MEL-28, 72 h, SKMEL28, skin): 6060 nM
- IC50 (cancer cell lines; Homo sapiens, SK-N-AS, SKNAS, brain): 2440 nM
- IC50 (cancer cell lines; Homo sapiens, SK-N-SH, SKNSH, brain): 2290 nM
- IC50 (cancer cell lines; Homo sapiens, SK-OV-3, 72 h, SKOV3, ovary): 2020 nM
- IC50 (cancer cell lines; Homo sapiens, SNB-75, 72 h, SNB75, brain): 12800 nM
- IC50 (cancer cell lines; Homo sapiens, SU-DHL10, 72 h, SU-DHL-10, hematological): 5600 nM
- IC50 (cancer cell lines; Homo sapiens, SU-DHL-6, 72 h, SU-DHL-6, hematological): 4190 nM
- IC50 (cancer cell lines; Homo sapiens, SW-620, 72 h, SW620, colon): 1820 nM
- IC50 (cancer cell lines; Homo sapiens, TE-671, 72 h, TE671, muscle): > 50000 nM
- IC50 (cancer cell lines; Homo sapiens, THP-1, 72 h, THP-1, hematological): 1970 nM
- IC50 (cancer cell lines; Homo sapiens, U2OS, bone): > 50000 nM
- IC50 (cancer cell lines; Homo sapiens, U-87 MG, U87MG, brain): 2380 nM
- IC50 (cancer cell lines; Homo sapiens, UMUC3, 72 h, UMUC3, bladder): > 50000 nM
- IC50 (cancer cell lines; Homo sapiens, UO-31, 72 h, UO31, kidney): 3290 nM
- IC50 (cancer cell lines; Homo sapiens, WSU-NHL, hematological): 2770 nM
- IC50 (cancer cell lines; NCI-H358M, NCIH358M, lung): 330 nM
- IC50 (cancer cell lines; PBMC, hematological): 190 nM
- IC50 (cancer cell lines; RD-ES, RDES, bone): 2480 nM
- IC50 (human LINE-1): 0.51 nM
